The record followed here is US11413278B2, “Compounds and methods for promoting stress resistance” (priority 2015, dated 2022).

The assay relates to NRF2. Kind of assay: qPCR analysis of NRF2-regulated genes. Format: cell-based, human. As to conditions: for fold induction at 10 µM: Homo sapiens. In short, it runs like this: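 Expression of HMOX1, NQO1, GCLC and GSTM1 measured by qPCR relative to B2M, PPIA and GAPDH. Cells were WI-38 fibroblasts exposed 24 hrs to 10 μM compound, with RNA and cDNA prepared via Cells-to-Ct. Where stated, cells were first transfected 36 hrs with FOXO3 or NRF2 siRNA at 10 nM.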
(In general: Quantitative PCR measures a nucleic acid by following its amplification.)

The mark [1] stands for this setting: 24 h, Assay 12(o), at 10 uM, qPCR, read-out: Induction of NRF2-regulated genes: GCLC normalized fold-change.
The mark [2] stands for this setting: 24 h, Assay 12(o), at 10 uM, qPCR, read-out: Induction of NRF2-regulated genes: GSTM1 normalized fold-change.
[3] abbreviates: 24 h, Assay 12(o), at 10 uM, qPCR, read-out: Induction of NRF2-regulated genes: NQO1 normalized fold-change.
Setting [4] is: rounded fold change, WI-38 cells, 10 μM, 24 hrs (RP29 for Gr-4D), read-out: Summary of effects on NRF2-regulated genes: GSTM1.
Where [5] appears, read: rounded fold change, WI-38 cells, 10 μM, 24 hrs (RP29 for Gr-4D), read-out: Summary of effects on NRF2-regulated genes: NQO1.
Where [6] appears, read: 10 μM, 24 hrs, WI-38 cells, qPCR, normalized to B2M, n = 4, read-out: GSTM1 expression, normalized fold change (NRF2-regulated gene).
[7] abbreviates: 10 μM, 24 hrs, WI-38 cells, qPCR, normalized to B2M, n = 4, read-out: NQO1 expression, normalized fold change (NRF2-regulated gene).
[8] abbreviates: WI-38 cells, 10 μM, 24 hrs, n=4, qPCR normalized by B2M, read-out: GCLC Normalized fold change.
The mark [9] stands for this setting: WI-38 cells, 10 μM, 24 hrs, n=4, qPCR normalized by B2M, read-out: GSTM1 Normalized fold change.
Setting [10] is: WI-38 cells, 10 μM, 24 hrs, n=4, qPCR normalized by B2M, read-out: HMOX1 Normalized fold change.
The mark [11] stands for this setting: WI-38 cells, 10 μM, 24 hrs, n=4, qPCR normalized by B2M, read-out: NQO1 Normalized fold change.
[12] abbreviates: rounded fold change, WI-38 cells, 10 μM, 24 hrs, read-out: Summary of effects on NRF2-regulated genes: GCLC.
Setting [13] is: 10 μM, 24 hrs, WI-38 cells, qPCR, normalized to B2M, n = 4, read-out: GCLC expression, normalized fold change (NRF2-regulated gene).
Where [14] appears, read: rounded fold change, WI-38 cells, 10 μM, 24 hrs (RP11 for Gr-1D, RP29 for Gr-4D), read-out: Summary of effects on NRF2-regulated genes: HMOX1.
Where [15] appears, read: 10 μM, 24 hrs, WI-38 cells, qPCR, normalized to B2M, n = 4, read-out: HMOX1 expression, normalized fold change (NRF2-regulated gene).
Where [16] appears, read: 24 h, Assay 12(o), at 10 uM, qPCR, read-out: Induction of NRF2-regulated genes: HMOX1 normalized fold-change.

Read-outs that look alike come from different tables or passages of the source. Some results are limits rather than exact numbers.

Turning to `O=C(Nc1cc(C(F)(F)F)ccc1Cl)c1ccc([N+](=O)[O-])o1` [Gr-1B], the “F = Potential NRF2 Activation” value is, setting by setting: (2-point score) 0; (summary score) 0. The fold induction at 10 µM runs as follows: under setting [1], 1.24; under setting [2], 1.44; under setting [3], 1.19; under setting [4], 2; under setting [5], 1.31; under setting [6], 2. In addition, the fold induction at 10 µM is, setting by setting: under setting [7], 1.31; under setting [8], 1.44; under setting [9], 2; under setting [10], 1.31; under setting [11], 1.31.
Turning to `CCc1ccccc1NC(=O)c1ccc([N+](=O)[O-])o1` [Gr-1C], the “Induction of at least two NRF2-regulated genes (HMOX1, NQO1, GCLC, GSTM1)” value (10 μM, 24 hrs, WI-38) is reported as “could induce expression of at least two genes”. Besides, the “F = Potential NRF2 Activation” value turned out to be 0 (2-point score) and 0 (summary score). In addition, the fold induction at 10 µM under setting [1] turned out to be 1.65; the fold induction at 10 µM under setting [3] was 1.33; the fold induction at 10 µM under setting [5] was found to be 1.46; the fold induction at 10 µM under setting [12] turned out to be 1.82; the fold induction at 10 µM under setting [13] was found to be 1.82; the fold induction at 10 µM under setting [7] amounted to 1.46. The fold induction at 10 µM is 1.82 under setting [8], 1.77 under setting [9], 1.32 under setting [10] and 1.46 under setting [11].
With `O=C(Nc1cccc(Cl)c1)c1ccc([N+](=O)[O-])o1` [Gr-1D], the “F = Potential NRF2 Activation” value by setting is: (2-point score) 0; (summary score) 0. Also, the fold induction at 10 µM under setting [14] is 4.68; the fold induction at 10 µM under setting [15] came to 4.68; the fold induction at 10 µM under setting [8] was found to be 1.08; the fold induction at 10 µM under setting [9] was found to be 1.17; the fold induction at 10 µM under setting [10] was 4.68; the fold induction at 10 µM under setting [11] is 0.878. The “Summary of effects on NRF2-regulated genes: HMOX1, second run” value (run RP42 (Gr-1D) / RP52 (Gr-4D), WI-38 cells, 10 μM) was 5.86,. For the setting “run RP42 (Gr-1D), WI-38 cells, 10 μM”, the “Summary of effects on NRF2-regulated genes: GCLC, second run” value is reported as 0.79,.
As to `O=C(Nc1cccc(C(F)(F)F)c1)c1ccc([N+](=O)[O-])o1` [Gr-1E], the “F = Potential NRF2 Activation” value runs as follows: (2-point score) 0; (summary score) 0. Further, the fold induction at 10 µM worked out at 1.36 under setting [1]; 0.79 under setting [16]; 2.11 under setting [4]; 2.11 under setting [6]; 1.55 under setting [8]; 2.11 under setting [9]. Moreover, the fold induction at 10 µM runs as follows: under setting [10], 1.06; under setting [11], 1.11.
As for `O=C(Nc1ccc(Cl)c(Cl)c1)c1ccc([N+](=O)[O-])o1` [Gr-1G], the “F = Potential NRF2 Activation” value is given as 0 (2-point score) and 0 (summary score). For the same molecule, the fold induction at 10 µM is, setting by setting: under setting [1], 1.57; under setting [16], 0.5; under setting [14], 0.5; under setting [12], 1.57; under setting [13], 1.57; under setting [15], 0.5. For the same molecule, the fold induction at 10 µM reads like this: under setting [8], 1.57; under setting [9], 0.948; under setting [10], 0.503; under setting [11], 1.26.
With `COc1ccc(C(=O)/C=C/c2ccc(F)cc2)c(OC)c1` [Gr-4A], the “F = Potential NRF2 Activation” value by setting is: (2-point score) 2; (summary score) 2. For the same molecule, the “Potential NRF2 Activation (>=2 target genes induced, by >=1.5-fold)” value (Assay 13(p)) was “YES”. Also, the fold induction at 10 µM runs as follows: under setting [2], 1.24; under setting [16], 5.24; under setting [3], 2.73; under setting [14], 5.24; under setting [4], 1.24; under setting [5], 2.73. Further, the fold induction at 10 µM runs as follows: (10 μM, 24 hrs, WI-38, read-out: Expression of at least two NRF2 target genes) over 1.5; under setting [6], 1.24; under setting [15], 5.24; under setting [7], 2.73; under setting [8], 1.18; under setting [9], 1.24. Moreover, the fold induction at 10 µM was determined as 5.24 under setting [10] and 2.73 under setting [11].
